The values below come from patent publication US20250304559A1, “Ether-Linked Antiviral Compounds” (Pfizer Inc., priority 2021, published 2025).

Assay [1] relates to SARS-CoV-2 (USA_WA1/2020). The assay is described as follows: Antiviral Activity from SARS-CoV-2 Infection (cytopathic effect, Cell Titer-Glo). Format: cell-based. The settings on record: VeroE6 cells enriched for hACE2, MOI 0.002, 3-day incubation, tested alone or with P-gp inhibitor CP-100356 2 μM (table does not say which), read-out: Geometric Mean EC50. (Protection from cytopathic effect is a common read-out in antiviral testing.)

Assay [2] has as its target T1, SARS-CoV-2 3CL protease (Severe acute respiratory syndrome coronavirus 2, UniProt P0DTD1).
T1 construct: measures the activity of full-length SARS-CoV-2 3CL protease
The assay is described as follows: SARS-CoV-2 Coronavirus 3C Protease FRET Assay. Format: biochemical. The settings on record: Morrison equation fit, 15 nM enzyme, 25 μM peptide substrate.

Where [3] appears, read: Severe acute respiratory syndrome coronavirus 2, Vero C1008, 72 h.
Where [4] appears, read: Examples 14-78 and 114 (second head of Table 2), read-out: Geometric Mean Ki (nM) IC50.

Like-named read-outs stand apart in the source and are kept apart here.

With `CC(C)[C@H](NS(=O)(=O)C(F)(F)F)C(=O)N1C[C@H]2[C@@H]([C@H]1C(=O)N[C@@H](C[C@@H]1CCNC1=O)C(=O)COc1ccc(F)cc1F)C2(C)C` [Example 4, (1R,2S,5S)-N-{(2S)-4-(2,4-difluorophenoxy)-3-oxo-1-[(3S)-2-oxopyrrolidin-3-yl]butan-2-yl}-6,6-dimethyl-3-{N-[(trifluoromethyl)sulfonyl]-L-valyl}-3-azabicyclo[3.1.0]hexane-2-carboxamide], the EC50 – broadly, the concentration needed to bring the measured effect to its halfway point – in assay [1] (setting [3]) came out at 395 nM. Further, in assay [2] (Examples 1-13, 60 minutes at 23° C., read-out: Geometric Mean Ki), the Ki (commonly the equilibrium dissociation constant of an inhibitor or competing ligand from its target) worked out at 6.34 nM.
With `CCC(C(NC(=O)C(F)(F)F)C(=O)N1C[C@H]2[C@@H]([C@H]1C(=O)N[C@@H](C[C@@H]1CCNC1=O)C(=O)COc1ccc(F)cc1F)C2(C)C)C(F)(F)F` (stereo in doubt) [Example 32, (1R,2S,5S)-N-{(2S)-4-(2,4-difluorophenoxy)-3-oxo-1-[(3S)-2-oxopyrrolidin-3-yl]butan-2-yl}-6,6-dimethyl-3-[3′,3′,3′-trifluoro-N-(trifluoroacetyl)-L-isoleucyl]-3-azabicyclo[3.1.0]hexane-2-carboxamide], the EC50 in assay [1] (setting [3]) was 98.9 nM. Besides, the Ki in assay [2] (setting [4]) came to 2.42 nM.
Regarding `Cc1noc(OCC(=O)[C@H](C[C@@H]2CCNC2=O)NC(=O)[C@@H]2[C@@H]3[C@H](CN2C(=O)[C@@H](NC(=O)C(F)(F)F)C(C)C)C3(C)C)n1` [Example 76, (1R,2S,5S)-6,6-dimethyl-N-{(2S)-4-[(3-methyl-1,2,4-oxadiazol-5-yl)oxy]-3-oxo-1-[(3S)-2-oxopyrrolidin-3-yl]butan-2-yl}-3-[N-(trifluoroacetyl)-L-valyl]-3-azabicyclo[3.1.0]hexane-2-carboxamide], the EC50 in assay [1] (setting [3]) was greater than 100000 nM. Moreover, the Ki in assay [2] (setting [4]) amounted to 3840 nM.
On to `CC(C)[C@H](NC(=O)C(F)(F)F)C(=O)N1C[C@H]2[C@@H]([C@H]1C(=O)N[C@@H](C[C@@H]1CCNC1=O)C(=O)COc1ccc(F)nc1)C2(C)C` [Example 31, (1R,2S,5S)-N-{(2S)-4-[(6-fluoropyridin-3-yl)oxy]-3-oxo-1-[(3S)-2-oxopyrrolidin-3-yl]butan-2-yl}-6,6-dimethyl-3-[N-(trifluoroacetyl)-L-valyl]-3-azabicyclo[3.1.0]hexane-2-carboxamide], for which the EC50 in assay [1] (setting [3]) is 167 nM.
Turning to `CC(C)(C)[C@H](NS(=O)(=O)C(F)(F)F)C(=O)N1C[C@H]2[C@@H]([C@H]1C(=O)N[C@@H](C[C@@H]1CCNC1=O)C(=O)COc1ccc(F)c(F)c1)C2(C)C` [Example 114, (1R,2S,5S)-N-{(2S)-4-(3,4-difluorophenoxy)-3-oxo-1-[(3S)-2-oxopyrrolidin-3-yl]butan-2-yl}-6,6-dimethyl-3-[3-methyl-N-(trifluoromethanesulfonyl)-L-valyl]-3-azabicyclo[3.1.0]hexane-2-carboxamide], the Ki in assay [2] (setting [4]) turned out to be 2.53 nM.
Take `COC(=O)N[C@H](C(=O)N1C[C@H]2[C@@H]([C@H]1C(=O)N[C@@H](C[C@@H]1CCNC1=O)C(=O)COc1cc(C(F)(F)F)nn1C)C2(C)C)C(C)C` [Example 36, methyl {(2S)-1-[(1R,2S,5S)-6,6-dimethyl-2-({(2S)-4-{[1-methyl-3-(trifluoromethyl)-1H-pyrazol-5-yl]oxy}-3-oxo-1-[(3S)-2-oxopyrrolidin-3-yl]butan-2-yl}carbamoyl)-3-azabicyclo[3.1.0]hexan-3-yl]-3-methyl-1-oxobutan-2-yl}carbamate]: the EC50 in assay [1] (setting [3]) is 256 nM.
In the case of `CCn1nc(C)cc1OCC(=O)[C@H](C[C@@H]1CCNC1=O)NC(=O)[C@@H]1[C@@H]2[C@H](CN1C(=O)[C@@H](NC(=O)C(F)(F)F)C(C)C)C2(C)C` [Example 43, (1R,2S,5S)-N-{(2S)-4-[(1-ethyl-3-methyl-1H-pyrazol-5-yl)oxy]-3-oxo-1-[(3S)-2-oxopyrrolidin-3-yl]butan-2-yl}-6,6-dimethyl-3-[N-(trifluoroacetyl)-L-valyl]-3-azabicyclo[3.1.0]hexane-2-carboxamide], the concentration giving a half-maximal response (EC50) in assay [1] (setting [3]) came to 642 nM.
On the same count and under the same terms, as for `CC(C)(C)[C@H](NC(=O)C(F)(F)F)C(=O)N1C[C@H]2[C@@H]([C@H]1C(=O)N[C@@H](C[C@@H]1CCNC1=O)C(=O)COc1ccccc1)C2(C)C` [Example 20, (1R,2S,5S)-6,6-dimethyl-3-[3-methyl-N-(trifluoroacetyl)-L-valyl]-N-{(2S)-3-oxo-1-[(3S)-2-oxopyrrolidin-3-yl]-4-phenoxybutan-2-yl}-3-azabicyclo[3.1.0]hexane-2-carboxamide], the figure is 14.7 nM.
With `Cc1ccc(OCC(=O)[C@H](C[C@@H]2CCNC2=O)NC(=O)[C@@H]2[C@@H]3[C@H](CN2C(=O)[C@@H](NC(=O)C(F)(F)F)C(C)(C)C)C3(C)C)cn1` [Example 19, (1R,2S,5S)-6,6-dimethyl-N-{(2S)-4-[(6-methylpyridin-3-yl)oxy]-3-oxo-1-[(3S)-2-oxopyrrolidin-3-yl]butan-2-yl}-3-[3-methyl-N-(trifluoroacetyl)-L-valyl]-3-azabicyclo[3.1.0]hexane-2-carboxamide], in assay [1] (setting [3]), the EC50 was found to be 37.2 nM.
As for `COCC(=O)[C@H](C[C@@H]1CCNC1=O)NC(=O)[C@@H]1CC(C(C)(C)C)CCN1C(=O)[C@@H](NS(=O)(=O)C(F)(F)F)C(C)C` (single isomer, unassigned) [Example 15, (2R*,4S*)-4-tert-butyl-N-{(2S)-4-methoxy-3-oxo-1-[(3S)-2-oxopyrrolidin-3-yl]butan-2-yl}-1-[N-(trifluoromethanesulfonyl)-L-valyl]piperidine-2-carboxamide, DIAST-1], the EC50 in assay [1] (setting [3]) is 272 nM.
In the case of `Cc1nsnc1OCC(=O)[C@H](C[C@@H]1CCNC1=O)NC(=O)[C@@H]1[C@@H]2[C@H](CN1C(=O)[C@@H](NC(=O)C(F)(F)F)C(C)C)C2(C)C` [Example 46, (1R,2S,5S)-6,6-dimethyl-N-{(2S)-4-[(4-methyl-1,2,5-thiadiazol-3-yl)oxy]-3-oxo-1-[(3S)-2-oxopyrrolidin-3-yl]butan-2-yl}-3-[N-(trifluoroacetyl)-L-valyl]-3-azabicyclo[3.1.0]hexane-2-carboxamide], the inhibition constant Ki in assay [2] (setting [4]) is 8.21 nM.
Take `CCc1cc(OCC(=O)[C@H](C[C@@H]2CCNC2=O)NC(=O)[C@@H]2[C@@H]3[C@H](CN2C(=O)[C@@H](NC(=O)C(F)(F)F)C(C)(C)C)C3(C)C)n(C)n1` [Example 26, (1R,2S,5S)-N-{(2S)-4-[(3-ethyl-1-methyl-1H-pyrazol-5-yl)oxy]-3-oxo-1-[(3S)-2-oxopyrrolidin-3-yl]butan-2-yl}-6,6-dimethyl-3-[3-methyl-N-(trifluoroacetyl)-L-valyl]-3-azabicyclo[3.1.0]hexane-2-carboxamide]: the EC50 in assay [1] (setting [3]) was determined as 171 nM.
Regarding `Cc1ccc(OCC(=O)[C@H](C[C@@H]2CCNC2=O)NC(=O)[C@@H]2[C@@H]3[C@H](CN2C(=O)[C@@H](NC(=O)C(F)(F)F)C(C)C)C3(C)C)cn1` [Example 18, (1R,2S,5S)-6,6-dimethyl-N-{(2S)-4-[(6-methylpyridin-3-yl)oxy]-3-oxo-1-[(3S)-2-oxopyrrolidin-3-yl]butan-2-yl}-3-[N-(trifluoroacetyl)-L-valyl]-3-azabicyclo[3.1.0]hexane-2-carboxamide], the EC50 in assay [1] (setting [3]) is 114 nM.
As to `CC(C)[C@H](NC(=O)C(F)(F)F)C(=O)N1C[C@H]2[C@@H]([C@H]1C(=O)N[C@@H](C[C@@H]1CCNC1=O)C(=O)COc1nnc(C(C)(C)C)n1C)C2(C)C` [Example 78, (1R,2S,5S)-N-{(2S)-4-[(5-tert-butyl-4-methyl-4H-1,2,4-triazol-3-yl)oxy]-3-oxo-1-[(3S)-2-oxopyrrolidin-3-yl]butan-2-yl}-6,6-dimethyl-3-[N-(trifluoroacetyl)-L-valyl]-3-azabicyclo[3.1.0]hexane-2-carboxamide], the concentration for a half-maximal effect (EC50) in assay [1] (setting [3]) worked out at 7370 nM.
As to `CCc1cc(OCC(=O)[C@H](C[C@@H]2CCNC2=O)NC(=O)[C@@H]2[C@@H]3[C@H](CN2C(=O)[C@@H](NC(=O)C(F)(F)F)C(C)C)C3(C)C)n(C)n1` [Example 45, (1R,2S,5S)-N-{(2S)-4-[(3-ethyl-1-methyl-1H-pyrazol-5-yl)oxy]-3-oxo-1-[(3S)-2-oxopyrrolidin-3-yl]butan-2-yl}-6,6-dimethyl-3-[N-(trifluoroacetyl)-L-valyl]-3-azabicyclo[3.1.0]hexane-2-carboxamide], the concentration for a half-maximal effect (EC50) in assay [1] (setting [3]) came out at 384 nM.
For the compound `CC(C)[C@H](NS(C)(=O)=O)C(=O)N1CCC(C(F)(F)F)C[C@H]1C(=O)N[C@@H](C[C@@H]1CCNC1=O)C(=O)COc1ccc(F)cc1F` (single isomer, unassigned) [Example 41, (2R*,4S*)-N-{(2S)-4-(2,4-difluorophenoxy)-3-oxo-1-[(3S)-2-oxopyrrolidin-3-yl]butan-2-yl}-1-[N-(methanesulfonyl)-L-valyl]-4-(trifluoromethyl)piperidine-2-carboxamide, DIAST-2], the 50% effective concentration (EC50) in assay [1] came to 224 nM.
Turning to `CC(C)[C@H](NS(C)(=O)=O)C(=O)N1CCC(C(F)(F)F)C[C@H]1C(=O)N[C@@H](C[C@@H]1CCNC1=O)C(=O)COc1ccc(F)cc1F` (single isomer, unassigned) [Example 71, (2R*,4S*)-N-{(2S)-4-(2,4-difluorophenoxy)-3-oxo-1-[(3S)-2-oxopyrrolidin-3-yl]butan-2-yl}-1-[N-(methanesulfonyl)-L-valyl]-4-(trifluoromethyl)piperidine-2-carboxamide, DIAST-1], the EC50 in assay [1] amounted to 8310 nM.
With `CCc1cc(OCC(=O)[C@H](C[C@@H]2CCNC2=O)NC(=O)[C@@H]2[C@@H]3[C@H](CN2C(=O)[C@@H](NC(=O)OC)C(C)(C)C)C3(C)C)n(C)n1` [Example 37, methyl {(2S)-1-[(1R,2S,5S)-2-({(2S)-4-[(3-ethyl-1-methyl-1H-pyrazol-5-yl)oxy]-3-oxo-1-[(3S)-2-oxopyrrolidin-3-yl]butan-2-yl}carbamoyl)-6,6-dimethyl-3-azabicyclo[3.1.0]hexan-3-yl]-3,3-dimethyl-1-oxobutan-2-yl}carbamate], the EC50 in assay [1] (setting [3]) is 900 nM.
